# What was measured:
# porcine esterase = experiment: Two-step luminescent carboxylesterase assay with D-luciferin esters; type: biochemical; conditions: result in words
# Text: D-luciferin esters were substrates for carboxylesterases in a two step luminescent assay format similar to that used for P450s. […] Though signals varied between P450 preparations no P450 preparation was much brighter than the control. It seems likely then that the signals were not due to P450 activity in the preparations hut rather, variable amounts of carboxyl esterase activities. Methyl, ethyl and picolinyl esters of D-luciferin were also characterized as substrates for a purified preparation of porcine esterase without any p450. In this format each ester linked group was cleaved by the esterase to yield D-luciferin that in turn reacted with luciferase to make light.
# [1] = tested on: panel of recombinant human P450s; experiment: Two-step luminescent P450 screen of luciferin derivatives, whole panel incl. HLM; type: biochemical; conditions: 50 µM substrate; result in words
# Description: In addition, it was also of interest to identify substrates with improved selectivity for single P450 enzymes. […] Derivatives useful as P450 substrates may be employed in assays to detect inhibitors for particular P450 enzymes (see Figures 17-18).
# (§1) P450s are Supersomes™ purchased from Discovery Labware (BD/Gentest). […] HLM is human liver microsomes.
# (§2) 1X substrate concentration: 50 µM.
# CYP4A11 = molecular target: T1, CYP4A11 (Homo sapiens, UniProt Q02928); experiment: Two-step luminescent P450 screen of luciferin derivatives; type: biochemical; conditions: result in words
# T1 construct: purchased Discovery Labware (BD/Gentest); host or cells: insect cell expression system (membrane fractions)
# T1 sequence (Q02928 5-519): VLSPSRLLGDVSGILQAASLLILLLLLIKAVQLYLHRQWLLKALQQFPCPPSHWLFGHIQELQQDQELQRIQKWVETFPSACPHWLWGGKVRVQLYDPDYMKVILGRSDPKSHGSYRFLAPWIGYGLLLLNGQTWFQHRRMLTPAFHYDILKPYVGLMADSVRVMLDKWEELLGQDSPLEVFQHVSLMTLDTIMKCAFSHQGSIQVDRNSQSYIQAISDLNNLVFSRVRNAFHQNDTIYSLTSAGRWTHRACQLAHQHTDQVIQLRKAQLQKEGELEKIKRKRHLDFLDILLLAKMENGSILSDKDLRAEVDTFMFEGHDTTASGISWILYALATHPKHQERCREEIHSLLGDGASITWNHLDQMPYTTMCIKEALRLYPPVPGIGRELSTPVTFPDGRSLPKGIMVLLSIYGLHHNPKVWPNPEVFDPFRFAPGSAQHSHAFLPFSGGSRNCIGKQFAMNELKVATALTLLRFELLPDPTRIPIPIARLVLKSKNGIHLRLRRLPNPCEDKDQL
# Description: as §1, §2
# CYP2C9 = molecular target: T2, CYP2C9 (Homo sapiens, UniProt P11712); experiment: as above; type: biochemical; conditions: 50 µM substrate, 1 pmole P450; result in words
# T2 construct: purchased Discovery Labware (BD/Gentest); host or cells: insect cell expression system (membrane fractions)
# Description: as §1, §2
# QuantiLum Luciferase [2] = molecular target: T3, QuantiLum Luciferase (Photinus pyralis, UniProt P08659); experiment: pH dependence of firefly luciferase luminescence with luciferin or 5'-fluoroluciferin; type: biochemical; conditions: for Absolute Luminescence: 630 µM substrate
# T3 construct: purchased Promega Corporation E170
# Description: Aliquots of these solutions were then placed into tubes and buffers were added to 80 mM.
# Luminescent reactions were initiated by combining 100 µl of the luciferase-containing solution and 100 µl of the luciferase detection reagents. Luminescence was integrated over 1 second per sample using the Veritas plate luminometer (Turner BioSystems). N=3 for each result.
# The average luminescence measured for each set of samples is listed in Table 50 (relative standard deviation ≤ 4.0%). […]
# QuantiLum Luciferase [3] = molecular target: T3, QuantiLum Luciferase; experiment: ATP titration of firefly luciferase reactions with luciferin and fluoroluciferins; type: biochemical; conditions: result in words
# Description: All compounds except 5'-fluoroluciferin and DTT were purchased from Sigma Chemical. To some of this reagent 5 mM ATP (Amersham/Invitrogen) was added, then serially diluted by half-logs to 0.05 mM. Reactions were initiated by adding equal volumes (0.1 ml) of reagent and DMEM medium (Gibco/Invitrogen) containing 0.1% Prionex® (Pentapharm) and 1.4 x 10-5 mg/ml QuantiLum™ Luciferase (Promega Corporation).
# For ATP titrations for 7'-fluoroluciferin, reagent was created containing 200 mM HEPES, 200 mM PIPES, 1 mM CDTA, 0.5% Tergitol NP-9, 0.03% Benzyl dodecyldimethyl ammonium bromide, 30 mM thiourea, 10 mM magnesium sulfate, and 0.15 mM 7'-fluoroluciferin. This solution was separated into 3 parts and pH of the reagents were 7.4, 7.2 and 6.7. To some of this reagent, 10 mM ATP (Amersham/Invitrogen) was added. The ATP was serially diluted by quarter-logs from 10 mM to 0.32 mM.
# Reactions were initiated by adding equal volumes (0.03 ml) of reagent and DMEM medium (Gibco/Invitrogen) containing 0.1% Prionex® (Pentapharm) and 1.4 x 10-5 mg/ml QuantiLum™ Luciferase (Promega Corporation).
# Luminescence was measured for 0.5 seconds per well using Berthold Orion luminometer.
# QuantiLum Luciferase [4] = molecular target: T3, QuantiLum Luciferase; experiment: Emission spectra of luciferase reactions with luciferin, 5'-fluoroluciferin, 7'-fluoroluciferin; type: biochemical, firefly; conditions: reagent pH 7.4
# Description: All compounds except fluoroluciferin and ATP were purchased from Sigma Chemical. ATP was purchased from Amersham/Invitrogen.
# Spectra were measured using 0.5s integration with 1 nm increments on a Spex Fluorolog.
# T3 sequence (P08659 whole entry): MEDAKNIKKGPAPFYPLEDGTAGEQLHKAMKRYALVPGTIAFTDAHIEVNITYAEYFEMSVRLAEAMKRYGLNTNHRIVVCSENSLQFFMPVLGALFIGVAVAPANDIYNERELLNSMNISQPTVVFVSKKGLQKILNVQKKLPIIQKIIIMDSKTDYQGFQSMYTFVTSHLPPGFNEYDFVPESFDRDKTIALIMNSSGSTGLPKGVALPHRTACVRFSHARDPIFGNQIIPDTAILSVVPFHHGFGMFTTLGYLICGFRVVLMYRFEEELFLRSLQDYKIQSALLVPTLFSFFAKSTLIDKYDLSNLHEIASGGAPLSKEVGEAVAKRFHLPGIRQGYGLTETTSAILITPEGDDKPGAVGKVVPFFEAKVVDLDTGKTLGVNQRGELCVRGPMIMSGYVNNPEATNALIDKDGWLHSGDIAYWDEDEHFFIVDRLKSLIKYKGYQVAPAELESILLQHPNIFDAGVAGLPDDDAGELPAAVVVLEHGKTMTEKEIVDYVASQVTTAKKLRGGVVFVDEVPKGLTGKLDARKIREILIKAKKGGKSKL
# T2 sequence (P11712 whole entry): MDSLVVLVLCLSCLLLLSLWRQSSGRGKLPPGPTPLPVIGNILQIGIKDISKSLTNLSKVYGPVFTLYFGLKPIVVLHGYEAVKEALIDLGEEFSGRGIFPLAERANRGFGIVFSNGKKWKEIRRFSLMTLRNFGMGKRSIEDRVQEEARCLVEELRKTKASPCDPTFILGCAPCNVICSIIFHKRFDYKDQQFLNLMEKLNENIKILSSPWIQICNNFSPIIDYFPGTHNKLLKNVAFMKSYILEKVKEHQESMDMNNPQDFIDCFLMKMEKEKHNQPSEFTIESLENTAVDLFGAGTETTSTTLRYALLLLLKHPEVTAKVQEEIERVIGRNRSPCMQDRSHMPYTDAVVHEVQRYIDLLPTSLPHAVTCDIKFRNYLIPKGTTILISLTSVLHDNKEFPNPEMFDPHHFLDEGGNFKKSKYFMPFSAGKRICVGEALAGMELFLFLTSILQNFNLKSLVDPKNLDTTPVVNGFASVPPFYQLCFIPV
smiles,measurement,setting,value
COC(=O)[C@H]1CSC(c2nc3ccc(O)cc3s2)=N1 [D-luciferin methyl ester],substrate for carboxylesterases in a two step luminescent assay format,porcine esterase,effective
"COc1cc2nc(C3=NC(C(=O)O)CS3)sc2cc1OC (stereo not drawn) [5,6-dimethoxyluciferin]",luminescent signals with the panel of P450 enzymes,[1],did not produce large luminescent signals with any P450
same,P450 activity / selectivity with the derivative as substrate,CYP4A11,preferred substrate
same,P450 activity / selectivity with the derivative as substrate,CYP2C9,preferred substrate
CCOC(=O)[C@H]1CSC(c2nc3ccc(O)cc3s2)=N1 [D-luciferin ethyl ester],substrate for carboxylesterases in a two step luminescent assay format,porcine esterase,effective
Nc1ccc(Oc2ccc3nc(C4=N[C@@H](C(=O)O)CS4)ccc3c2)cc1 [6(p-aminophenyloxy)-quinolylluciferin],luminescent signals with the panel of P450 enzymes,[1],did not produce large luminescent signals with any P450
"O=C(OCc1cccnc1)[C@H]1CSC(c2nc3ccc(O)cc3s2)=N1 [D-luciferin picolinyl ester, m-picolinyl ester of luciferin]",substrate for carboxylesterases in a two step luminescent assay format,porcine esterase,effective
O=C(O)[C@H]1CSC(c2nc3cc(F)c(O)cc3s2)=N1 [5'-fluoroluciferin],Absolute Luminescence,"QuantiLum Luciferase [2]; pH 6.900, MOPS","272,127 RLU"
same,change of luminescence over the pH range tested,QuantiLum Luciferase [2]; pH 6.9 to 8.3,about 40%
same,Absolute Luminescence,"QuantiLum Luciferase [2]; pH 7.133, MOPS","325,337 RLU"
same,Absolute Luminescence,"QuantiLum Luciferase [2]; pH 7.296, MOPS","331,515 RLU"
same,Absolute Luminescence,"QuantiLum Luciferase [2]; pH 7.303, HEPES","323,456 RLU"
same,Absolute Luminescence,"QuantiLum Luciferase [2]; pH 7.499, MOPS","334,288 RLU"
same,Absolute Luminescence,"QuantiLum Luciferase [2]; pH 7.521, HEPES","360,308 RLU"
same,Absolute Luminescence,"QuantiLum Luciferase [2]; pH 7.673, Tricine","351,411 RLU"
same,Absolute Luminescence,"QuantiLum Luciferase [2]; pH 7.720, HEPES","378,927 RLU"
same,Absolute Luminescence,"QuantiLum Luciferase [2]; pH 7.883, Tricine","357,883 RLU"
same,decrease of luminescence when buffer changed from HEPES to tricine,QuantiLum Luciferase [2]; pH 7.89 reagent,6%
same,Absolute Luminescence,"QuantiLum Luciferase [2]; pH 7.892, HEPES","377,498 RLU"
same,Absolute Luminescence,"QuantiLum Luciferase [2]; pH 8.100, Tricine","357,041 RLU"
same,Absolute Luminescence,"QuantiLum Luciferase [2]; pH 8.327, Tricine","317,030 RLU"
same,ATP requirement of the luciferase reaction compared with luciferin,QuantiLum Luciferase [3],saturated with ATP at a higher concentration
same,"λmax of luminescence, blue-shifted from regular luciferin",QuantiLum Luciferase [4],approximately 25 nm
same,"λmax of luminescence, blue-shifted from regular luciferin",QuantiLum Luciferase [4]; listed as 5' fluoroluciferin,about 10 nm
